{"source": "PubChem BioAssay AID463151", "about": "(The Scripps Research Institute Molecular Screening Center, 2010)", "biological_target": "Nuclear receptor ROR-gamma (Homo sapiens) (UniProt P51449)", "sequence (P51449 whole entry, looked up)": "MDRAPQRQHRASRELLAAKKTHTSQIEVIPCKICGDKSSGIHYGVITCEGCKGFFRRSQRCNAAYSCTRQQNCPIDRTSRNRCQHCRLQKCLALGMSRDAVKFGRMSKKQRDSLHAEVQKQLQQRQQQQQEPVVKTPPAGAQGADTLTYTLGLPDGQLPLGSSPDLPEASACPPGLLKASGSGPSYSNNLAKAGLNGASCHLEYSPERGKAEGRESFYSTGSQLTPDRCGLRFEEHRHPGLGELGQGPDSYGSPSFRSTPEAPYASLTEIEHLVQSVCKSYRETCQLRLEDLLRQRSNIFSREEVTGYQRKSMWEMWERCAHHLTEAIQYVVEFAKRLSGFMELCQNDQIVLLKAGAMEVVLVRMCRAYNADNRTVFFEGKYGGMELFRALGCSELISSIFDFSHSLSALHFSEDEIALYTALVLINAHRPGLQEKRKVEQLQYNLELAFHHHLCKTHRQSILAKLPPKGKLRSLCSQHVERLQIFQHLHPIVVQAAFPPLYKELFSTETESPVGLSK", "experiment": "RORγ reporter activity suppression – cell-based, luminescence, dose response, selectivity assay for RORA inverse agonist project, late-stage follow-up (AID 463151)", "details": "cell-based RORG luciferase reporter", "note": "Activity calls are given as the source filed them. No rule for the calls is given here.", "data": [{"smiles": "O=S(=O)(Nc1ccc(C(O)(C(F)(F)F)C(F)(F)F)cc1)c1cccs1", "values": [{"measurement": "IC50", "value": "> 10 µM (inactive)"}]}]}
